In US7288535B2, “Methods and compositions for stimulating bone growth using nitric oxide releasing bisphosphonate conjugates” (OsteoScreen, Inc., priority 2002, dated 2007):
Where two headings read alike, the source gives them in different places. Marks after values point to notes of the source that are not given here.

Tests used:
[1] = test system: neonatal murine calvarial incubation media; details: mean ± standard error (n=5)
Procedure: (§1) An assay for bone resorption or bone formation is similar to that described by Gowen M. & Mundy G., J Immunol (1986) 136:2478-82. Briefly, four days after birth, the front and parietal bones of ICR Swiss white mouse pups are removed by microdissection and split along the sagittal suture. […] The medium used when the assay is conducted to assess bone formation is Fitton and Jackson Modified BGJ Medium (Sigma) supplemented with 6 ug/ml insulin, 6 ug/ml transferrin, 6 ng/ml selenous acid, calcium and phosphate concentrations of 1.25 and 3.0 mM, respectively, and ascorbic acid to a concentration of 100 ug/ml is added every two days. The incubation is conducted at 37° C. in a humidified atmosphere of 5% CO2 and 95% air for 96 hours.
These neonatal murine calvaria do contain measurable levels of alkaline phosphatase and this can be measured either from the calvaria itself or to some degree in the incubation media as a semi-quantitative measurement of bone formation activity. For measurement of alkaline phosphatase activity in the media, 50 ul is removed at the end of the assay. The activity is then measured using standard alkaline phosphatase reagents.
Alkaline phosphatase activity is measured in the incubation media as detailed described above in “Techniques for Neonatal Mouse Calvaria Assay (in vitro)).

[2] = test system: Neonatal Murine Calvariae; details: mean ± standard error (n=5)
Procedure: as §1
The bones are removed from the incubation media and fixed in 10% buffered formalin for 24-48 hours, decalcified in 14% EDTA for 1 week, processed through graded alcohols; and embedded in paraffin wax. Three μm sections of the calvaria are prepared. Representative sections are selected for histomorphometric assessment of bone formation or bone resorption. Bone changes are measured on sections cut 200 μm apart. Osteoblasts and osteoclasts are identified by their distinctive morphology.
Selected compounds and appropriate controls were assayed in vitro (ex vivo) for bone formation activity (described above in “Techniques for Neonatal Mouse Calvaria Assay (in vitro)). Histomorphometrical assessments of ex vivo calvaria were carried out using an OsteoMetrics bone morphometry measurement program, according to the manufacturer's instructions. Measurements were determined using either a 10- or 20-fold objective with a standard point counting eyepiece graticule.
New bone formation was determined (using a 20× objective) by measuring the new bone area formed in one field in 3 representative sections of each bone (4 bones per group). Each measurement was carried out ½ field distance from the end of the suture. Both total bone and old bone area were measured. Data were expressed as new bone width in mm.
Osteoblast numbers are determined by point counting. The number of osteoblast cells lining the bone surface on both sides of the bone are counted in one field using a 20× objective. Data are expressed as osteoblast numbers/mm of bone surface.

human stomach = details: healthy volunteers, doses prescribed for osteoporosis and Pagets disease of bone; cited from earlier work

SMILES | Alkaline Phosphatase OD ([1]; 0.1 uM) [OD] | Alkaline Phosphatase OD ([1]; 1 uM) [OD] | Alkaline Phosphatase OD ([1]; 10 uM) [OD] | Alkaline Phosphatase OD ([1]; 100 uM) [OD] | Cell Number/0.3 mm bone ([2]; 0.1 uM) | New Bone Area ([2]; 0.1 uM) [mm^2 × 10^−3] | Cell Number/0.3 mm bone ([2]; 1 uM) | New Bone Area ([2]; 1 uM) [mm^2 × 10^−3] | Cell Number/0.3 mm bone ([2]; 10 uM) | New Bone Area ([2]; 10 uM) | Cell Number/0.3 mm bone ([2]; 100 uM) | New Bone Area ([2]; 100 uM) | injury to the stomach (human stomach)
NCCCC(O)(P(=O)(O)O)P(=O)(O)O [Alendronate, (4-animo-1-hydroxybutylidene)bis-phosphonate] | 0.030 ± 0.009 | 0.031 ± 0.010 | 0.034 ± 0.001 | 0.038 ± 0.003 | 98± 6 /0.3 mm bone | 2.9 ± 0.1 | 103± 4 /0.3 mm bone | 3.2 ± 0.5 | 101± 5 /0.3 mm bone | 2.7 ± 0.2 mm^2 × 10^−3 | 97± 3 /0.3 mm bone | 3.1 ± 0.3 mm^2 × 10^−3 | cause erosions and ulcers in the human stomach
O=C(NCCCC(O)(P(=O)(O)O)P(=O)(O)O)c1ccc(CO[N+](=O)[O-])cc1 [NOX-Alendronate, [4-(4′-nitrooxymethyl)benzoylamino-1-hydroxybutylidene]-bis-phosphonate] | 0.029 ± 0.007 | 0.023 ± 0.001 | 0.053 ± 0.007 | 0.072 ± 0.003 | 104 ± 8 /0.3 mm bone | 3.6 ± 0.6 | 115 ± 5 /0.3 mm bone | 4.2 ± 0.4 | 132 ± 5 /0.3 mm bone | 6.7 ± 0.7* mm^2 × 10^−3 | 124 ± 2 /0.3 mm bone | 5.4 ± 0.3* mm^2 × 10^−3 | –
